According to ChEMBL document CHEMBL1240454, “1,3-Dioxolane-based ligands incorporating a lactam or imide moiety: structure-affinity/activity relationship at alpha1-adrenoceptor subtypes and at 5-HT1A receptors” (Eur J Med Chem, 2010):

Columns and labels:
[1] = target: T1, Alpha-1B adrenergic receptor (Homo sapiens, UniProt P35368)
T1 sequence (P35368 whole entry): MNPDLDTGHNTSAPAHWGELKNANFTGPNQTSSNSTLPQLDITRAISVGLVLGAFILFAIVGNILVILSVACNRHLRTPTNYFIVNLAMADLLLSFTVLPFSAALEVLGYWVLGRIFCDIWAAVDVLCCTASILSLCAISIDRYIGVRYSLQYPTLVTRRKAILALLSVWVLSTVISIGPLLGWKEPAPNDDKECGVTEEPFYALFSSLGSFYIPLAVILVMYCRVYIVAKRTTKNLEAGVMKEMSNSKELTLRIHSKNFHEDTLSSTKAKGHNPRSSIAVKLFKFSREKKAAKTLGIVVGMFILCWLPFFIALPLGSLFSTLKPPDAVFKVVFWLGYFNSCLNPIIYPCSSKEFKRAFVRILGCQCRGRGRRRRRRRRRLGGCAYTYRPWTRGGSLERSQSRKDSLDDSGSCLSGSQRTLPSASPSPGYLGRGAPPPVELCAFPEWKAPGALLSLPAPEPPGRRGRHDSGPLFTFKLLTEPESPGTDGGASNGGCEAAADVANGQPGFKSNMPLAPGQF
Description: Displacement [3H]prazosin of human recombinant Alpha-1B adrenergic receptor expressed in CHO cells by rapid filtration technique

[2] = target: T2, Alpha-1D adrenergic receptor (Homo sapiens, UniProt P25100)
T2 sequence (P25100 whole entry): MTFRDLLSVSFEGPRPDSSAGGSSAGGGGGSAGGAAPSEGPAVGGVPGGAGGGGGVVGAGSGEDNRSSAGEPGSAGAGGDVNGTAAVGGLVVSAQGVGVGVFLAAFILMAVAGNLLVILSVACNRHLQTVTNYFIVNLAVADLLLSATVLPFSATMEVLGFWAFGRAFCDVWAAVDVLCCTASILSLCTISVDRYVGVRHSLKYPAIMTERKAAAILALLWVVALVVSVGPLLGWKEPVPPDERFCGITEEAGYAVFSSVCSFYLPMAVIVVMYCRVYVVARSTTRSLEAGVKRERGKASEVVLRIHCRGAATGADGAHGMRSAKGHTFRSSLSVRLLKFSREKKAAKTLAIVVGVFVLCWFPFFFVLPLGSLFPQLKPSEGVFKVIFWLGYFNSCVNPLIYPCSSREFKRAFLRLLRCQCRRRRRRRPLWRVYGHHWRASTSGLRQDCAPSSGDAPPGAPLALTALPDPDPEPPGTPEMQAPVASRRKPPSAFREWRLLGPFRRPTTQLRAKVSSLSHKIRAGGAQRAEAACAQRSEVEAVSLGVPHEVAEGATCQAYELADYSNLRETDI
Description: Displacement [3H]prazosin of human recombinant Alpha-1D adrenergic receptor expressed in CHO cells by rapid filtration technique

Rattus norvegicus [3] = species on record: Rattus norvegicus; test: Selectivity for adrenergic Alpha-1B receptor in Wistar rat spleen over adrenergic alpha1D receptor in Wistar rat thoracic aorta; format: tissue-based
Rattus norvegicus [4] = species on record: Rattus norvegicus; test: Selectivity for adrenergic alpha1A receptor in Wistar rat prostatic vas deferens over adrenergic Alpha-1D receptor in Wistar rat thoracic aorta; format: tissue-based
[5] = target: T3, 5-hydroxytryptamine receptor 1A (Homo sapiens) (UniProt P08908); test: Agonist activity at human cloned 5HT1A receptor expressed in human HeLa cells assessed as stimulation of [35S]GTPgammaS binding after 20 mins by liquid scintillation counting; format: functional, cell-based
T3 sequence (whole entry): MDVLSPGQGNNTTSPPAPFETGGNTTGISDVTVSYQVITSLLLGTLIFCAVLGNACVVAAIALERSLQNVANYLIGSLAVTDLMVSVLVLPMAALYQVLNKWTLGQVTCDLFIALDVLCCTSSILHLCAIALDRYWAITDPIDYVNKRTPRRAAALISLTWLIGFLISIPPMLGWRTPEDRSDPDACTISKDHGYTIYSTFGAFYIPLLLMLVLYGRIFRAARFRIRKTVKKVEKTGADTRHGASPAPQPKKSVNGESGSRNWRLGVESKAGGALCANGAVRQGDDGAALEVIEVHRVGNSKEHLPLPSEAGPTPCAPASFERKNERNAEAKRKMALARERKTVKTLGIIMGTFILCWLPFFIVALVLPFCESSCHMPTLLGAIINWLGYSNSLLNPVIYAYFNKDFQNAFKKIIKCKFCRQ

[6] = target: T3, 5-hydroxytryptamine receptor 1A (Homo sapiens); test: Agonist activity at human cloned 5HT1A receptor expressed in human HeLa cells assessed as stimulation of [35S]GTPgammaS binding after 20 mins by liquid scintillation counting relative to maximal 5HT response; format: functional, cell-based
[7] = target: T3, 5-hydroxytryptamine receptor 1A (Homo sapiens); settings: HeLa
[8] = Selectivity for adrenergic alpha1 receptor over 5HT1A receptor
[9] = target: T4, 5-hydroxytryptamine receptor 1A (Homo sapiens, UniProt P08908); test: Binding affinity to 5HT1A receptor
T4 sequence (P08908 whole entry): T3 sequence (whole entry)

For COc1ccccc1N1CCN(C[C@@H]2CO[C@@](CN3C(=O)CCCC3=O)(c3ccccc3)O2)CC1 (relative stereo), the Ki [1] was 0.132 µM, the Ki [2] was 0.00851 µM and the Selectivity ratio (Rattus norvegicus [3]) was 2. For the same compound, the Selectivity ratio (Rattus norvegicus [4]) was 2.
In the case of COc1ccccc1N1CCN(C[C@@H]2CO[C@@](CN3C(=O)CC4(CCCC4)CC3=O)(c3ccccc3)O2)CC1 (relative stereo), the pD2 [5] is reported as 7.98, the Ki [1] is reported as 0.01 µM and the Emax [6] is reported as 60%. It also gave a Ki [2] of 0.00138 µM, a Selectivity ratio (Rattus norvegicus [3]) of 11 and a Selectivity ratio (Rattus norvegicus [4]) of 17.
With COc1ccccc1N1CCN(C[C@@H]2CO[C@@](CN3C(=O)CCC3=O)(c3ccccc3)O2)CC1 (relative stereo) the Ki [1] was 0.224 µM, the Ki [2] was 0.0162 µM and the Selectivity ratio (Rattus norvegicus [3]) was 5. The Selectivity ratio (Rattus norvegicus [4]) was 3.
COc1ccccc1N1CCN(C[C@@H]2CO[C@@](CN3CCCCCC3=O)(c3ccccc3)O2)CC1 (relative stereo) showed a pD2 [5] of 6.57, a Ki [1] of 0.0182 µM and an Emax [6] of 39%. It also gave a Ki [2] of 0.00251 µM, a Selectivity ratio (Rattus norvegicus [3]) of 0.5 and a Selectivity ratio (Rattus norvegicus [4]) of 4.
COc1ccccc1N1CCN(C[C@@H]2CO[C@@](CN3CCCCC3=O)(c3ccccc3)O2)CC1 (relative stereo) gave a Ki [1] of 0.0513 µM, a Ki [2] of 0.00148 µM and a Selectivity ratio (Rattus norvegicus [3]) of 0.1. For the same compound, the Selectivity ratio (Rattus norvegicus [4]) was 1 and the pKb [7] was 7.39.
With COc1ccccc1N1CCN(CC2OCC(c3ccccc3)(c3ccccc3)O2)CC1 (configuration not stated) the pD2 [5] was 8.3, the Selectivity ratio [8] was 100 and the Ki [1] was 0.00676 µM. The Emax [6] was 16%, the Ki [2] was 0.000813 µM and the Selectivity ratio (Rattus norvegicus [3]) was 28. For the same compound, the Selectivity ratio (Rattus norvegicus [4]) was 0.8 and the Ki [9] was 0.0151 µM.
For COc1ccccc1N1CCN(C[C@H]2CO[C@@](CN3CCCCCC3=O)(c3ccccc3)O2)CC1 (relative stereo), the Ki [1] was 0.0724 µM, the Ki [2] was 0.00407 µM and the Selectivity ratio (Rattus norvegicus [3]) was 0.1. The Selectivity ratio (Rattus norvegicus [4]) was 0.04 and the pKb [7] was 7.25.
For COc1ccccc1N1CCN(C[C@H]2CO[C@@](CN3CCCCC3=O)(c3ccccc3)O2)CC1, the Ki [1] was 0.129 µM, the Ki [2] was 0.0141 µM and the Selectivity ratio (Rattus norvegicus [3]) was 0.06. The Selectivity ratio (Rattus norvegicus [4]) was 0.3 and the pKb [7] was 7.38.
COc1ccccc1N1CCN(C[C@H]2CO[C@@](CN3C(=O)CCCC3=O)(c3ccccc3)O2)CC1 (relative stereo) showed a pD2 [5] of 7.23, a Ki [1] of 0.0468 µM and an Emax [6] of 34%. For the same compound, the Ki [2] was 0.0324 µM, the Selectivity ratio (Rattus norvegicus [3]) was 0.1 and the Selectivity ratio (Rattus norvegicus [4]) was 0.1.
COc1ccccc1N1CCN(C[C@H]2CO[C@@](CN3C(=O)CC4(CCCC4)CC3=O)(c3ccccc3)O2)CC1 (relative stereo) gave a pD2 [5] of 7.8, a Ki [1] of 0.00933 µM and an Emax [6] of 49%. For the same compound, the Ki [2] was 0.00479 µM, the Selectivity ratio (Rattus norvegicus [3]) was 0.2 and the Selectivity ratio (Rattus norvegicus [4]) was 0.1.
Work on COc1ccccc1N1CCN(C[C@H]2CO[C@@](CN3C(=O)CCC3=O)(c3ccccc3)O2)CC1 (relative stereo) yielded a pD2 [5] of 7.05, a Ki [1] of 0.0851 µM and an Emax [6] of 45%. The Ki [2] was 0.0398 µM, the Selectivity ratio (Rattus norvegicus [3]) was 0.2 and the Selectivity ratio (Rattus norvegicus [4]) was 0.1.
Work on COc1ccccc1N1CCN(C[C@H]2CO[C@](CN3CCCC3=O)(c3ccccc3)O2)CC1 (relative stereo) yielded a Ki [1] of 0.174 µM, a Ki [2] of 0.0135 µM and a Selectivity ratio (Rattus norvegicus [3]) of 0.03. It also gave a Selectivity ratio (Rattus norvegicus [4]) of 0.07 and a pKb [7] of 7.16.
COc1ccccc1N1CCN(C[C@@H]2CO[C@](CN3CCCC3=O)(c3ccccc3)O2)CC1 (relative stereo) gave a pD2 [5] of 7.14, a Ki [1] of 0.0708 µM and an Emax [6] of 34%. For the same compound, the Ki [2] was 0.00525 µM, the Selectivity ratio (Rattus norvegicus [3]) was 0.1 and the Selectivity ratio (Rattus norvegicus [4]) was 1.
